Laboratory results from the Deep4Chem optical property database.

Test: solvent given as SMILES

CCOC(=O)c1c2c3c(ccc([N+](=O)[O-])c3c3cc4c(cc13)[Si](C)(C)O[Si]4(C)C)N(C)C2=O
emission maximum (in CC#N): 413 nm

c1ccc(-c2nc(-c3ccccc3)c(-c3ccccc3)[nH]2)cc1
emission maximum (in CC#N): 387 nm
emission maximum (in CO): 386.5 nm

COC(=O)C(Cc1ccc2oc(-c3ccc(N(c4ccccc4)c4ccccc4)cc3)nc2c1)NC(=O)OC(C)(C)C (stereo unspecified)
emission maximum (in C1CCCCC1): 395.25 nm
emission maximum (in C1CCOC1): 447.04 nm
emission maximum (in C1COCCO1): 436.75 nm
emission maximum (in CC1CCCCC1): 395 nm
emission maximum (in CC1COC(=O)O1): 474 nm
emission maximum (in CC#N): 465.75 nm
emission maximum (in CC(C)=O): 456.17 nm
emission maximum (in CC(C)O): 455.75 nm
emission maximum (in CC(O)CO): 482.75 nm
emission maximum (in CCCCCC): 392.75 nm
emission maximum (in CCCCCCCC): 394 nm
emission maximum (in CCCCCO): 454.75 nm
emission maximum (in CCCCO): 454.5 nm
emission maximum (in CCO): 475.75 nm
emission maximum (in CCOC(C)=O): 448.75 nm
emission maximum (in CN(C)C=O): 461.75 nm
emission maximum (in CO): 486 nm
emission maximum (in COCCOC): 453.75 nm
emission maximum (in CS(C)=O): 474.5 nm
emission maximum (in ClC(Cl)Cl): 445 nm
emission maximum (in ClCCl): 451.25 nm
emission maximum (in N#Cc1ccccc1): 461.25 nm
emission maximum (in NC=O): 491.5 nm
emission maximum (in O): 502.99 nm
emission maximum (in OCC(F)(F)F): 496.25 nm

Clc1nc(Cl)nc(Nc2cc3ccc4cccc5ccc(c2)c3c45)n1
emission maximum (in CCCCOCCCC): 374 nm

CCOC(=O)c1ccc(C2=CC3=c4cc(-c5ccc(C(=O)OCC)cc5)c5nc(C(F)(F)C(F)(F)C(F)(F)F)nc6c(-c7ccc(C(=O)OCC)cc7)cc(c4c65)C4=CC(c5ccc(C(=O)OCC)cc5)=C5N=C(C(F)(F)C(F)(F)C(F)(F)F)N=C2C5C43)cc1 (stereo unspecified)
emission maximum (in C1CCOC1): 523 nm

N#Cc1cc(-c2ccc(F)cc2)cnc1O
emission maximum (in C1COCCO1): 422 nm
emission maximum (in CC1CCCCC1): 425 nm
emission maximum (in CC#N): 423 nm
emission maximum (in CC(C)O): 424 nm
emission maximum (in CCO): 425 nm
emission maximum (in CO): 425 nm
emission maximum (in CS(C)=O): 427 nm
emission maximum (in ClC(Cl)(Cl)Cl): 429 nm
emission maximum (in O): 425 nm

CCc1c(C)c2n(c1C)[B-](F)(F)[N+]1=C(c3ccc[nH]3)c3ccccc3C1=C2C
emission maximum (in C1CCOC1): 627 nm
emission maximum (in CC#N): 623 nm
emission maximum (in CCCCCC): 622 nm
emission maximum (in CO): 622 nm
emission maximum (in Cc1ccccc1): 630 nm
emission maximum (in ClCCl): 629 nm

COc1ccc(-c2cnc3nn4ccccc4c3n2)cc1
emission maximum (in C1CCOC1): 455 nm

O=S1(=O)c2ccccc2C2(c3cc(-c4ccc(N(c5ccccc5)c5ccccc5)cc4)ccc3-c3ccc(-c4ccc(N(c5ccccc5)c5ccccc5)cc4)cc32)c2ccccc21
emission maximum (in ClCCl): 460 nm
emission maximum (in c1cc(-n2c3ccccc3c3ccccc32)cc(-n2c3ccccc3c3ccccc32)c1): 448 nm

C(=C\c1nc2c3ccccc3c3ccccc3c2o1)/c1ccccc1
emission maximum (in CC#N): 434 nm

CC(C)(C)OC(=O)NCCCC(=O)OCc1ccc2c3cccc4cccc(c5cccc1c52)c43
emission maximum (in CCO): 446 nm

CC1=CC(C)=[N+]2C1=C(c1ccc(C(=O)OC3C[C@@H]4CC[C@]3(C)C4(C)C)cc1)c1c(C)cc(C)n1[B-]2(F)F (stereo partly specified)
emission maximum (in Cc1ccccc1): 518 nm
